Results on 16 compounds are retold here after ChEMBL document CHEMBL3232957, “Some non-conventional biomolecular targets for diamidines. A short survey” (Bioorg Med Chem, 2014).

Molecules are shown by their SMILES.

The subject of assay [1] is Mus musculus. The assay is described as follows: Neuroprotective activity in Swiss mouse focal cerebral injury model assessed as reduction of ibotenate-induced lesion size in white matter at 4 ug/kg. Also on record: scale not given: the % may be the effect or the level left. In kind it is functional.
Assay [2] relates to Mus musculus. The experiment in a line: Neuroprotective activity in Swiss mouse focal cerebral injury model assessed as reduction of ibotenate-induced lesion size in gray matter at 4 ug/kg. In kind it is functional. Also on record: scale not given: the % may be the effect or the level left.
The target in assay [3] is Glutamate [NMDA] receptor. The experiment in a line: Antagonist activity at NMDA receptor (unknown origin). Also on record: species or system Homo sapiens.
A short description of assay [4]: Antiproliferative activity against human C8146A cells assessed as growth inhibition. In kind it is functional, cell-based.
Assay [5] can be described thus: Inhibition of mouse hippocampal neurons ASIC transfected in CHO cells assessed as inhibition of acid-evoked current at -60 mV holding potential by two-electrode voltage-clamp electrophysiology assay. In kind it is cell-based. (In two-electrode clamp one electrode senses voltage and the other passes current.)
The species entered for assay [6] is Homo sapiens. The experiment in a line: Inhibition of human KIR2.X channel assessed as remaining inward current at 0.2 uM; values are per cent of control.
Assay [7] is filed under the species Homo sapiens. The assay is described as follows: Inhibition of human KIR2.X channel assessed as remaining outward current at 0.2 uM; values are per cent of control.
In assay [8] the target is T1, Acid-sensing ion channel 2 (Mus musculus) (UniProt Q925H0).
T1 sequence (whole entry): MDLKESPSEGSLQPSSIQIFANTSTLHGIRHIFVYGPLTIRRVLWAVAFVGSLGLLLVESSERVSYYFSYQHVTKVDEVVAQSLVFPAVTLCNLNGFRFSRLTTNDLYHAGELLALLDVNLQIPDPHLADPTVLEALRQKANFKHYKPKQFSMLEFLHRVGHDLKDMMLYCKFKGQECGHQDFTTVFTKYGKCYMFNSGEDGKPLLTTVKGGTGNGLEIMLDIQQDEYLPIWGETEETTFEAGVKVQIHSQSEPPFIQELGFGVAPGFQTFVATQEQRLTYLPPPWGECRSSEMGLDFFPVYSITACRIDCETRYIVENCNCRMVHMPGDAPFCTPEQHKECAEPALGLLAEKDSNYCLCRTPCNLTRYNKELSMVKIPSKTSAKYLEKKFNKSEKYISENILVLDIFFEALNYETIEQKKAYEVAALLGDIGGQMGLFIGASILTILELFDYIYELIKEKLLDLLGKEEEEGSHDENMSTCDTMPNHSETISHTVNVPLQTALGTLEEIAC
The experiment in a line: Inhibition of mouse hippocampal neurons ASIC2a transfected in CHO cells assessed as reduction of acid-evoked current at 3 uM at -60 mV holding potential by two-electrode voltage-clamp electrophysiology assay. In kind it is cell-based.

Assay [9] has as its target T2, Acid-sensing ion channel 1 (Mus musculus) (UniProt Q6NXK8).
T2 sequence (whole entry): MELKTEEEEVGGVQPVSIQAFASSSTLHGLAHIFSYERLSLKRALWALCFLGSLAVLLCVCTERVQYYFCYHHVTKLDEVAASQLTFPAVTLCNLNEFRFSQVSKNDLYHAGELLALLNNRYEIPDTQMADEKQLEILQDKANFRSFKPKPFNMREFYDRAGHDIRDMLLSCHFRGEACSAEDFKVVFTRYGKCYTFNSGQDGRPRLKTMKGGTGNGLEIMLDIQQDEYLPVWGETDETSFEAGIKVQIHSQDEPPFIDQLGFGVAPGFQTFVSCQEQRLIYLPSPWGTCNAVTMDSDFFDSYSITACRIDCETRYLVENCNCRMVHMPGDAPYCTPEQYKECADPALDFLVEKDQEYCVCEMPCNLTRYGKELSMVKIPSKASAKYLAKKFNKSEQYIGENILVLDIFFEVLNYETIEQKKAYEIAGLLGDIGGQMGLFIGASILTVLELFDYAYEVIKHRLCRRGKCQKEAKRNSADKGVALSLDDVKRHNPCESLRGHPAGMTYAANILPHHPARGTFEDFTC
The experiment in a line: Inhibition of mouse hippocampal neurons ASIC1a transfected in CHO cells assessed as reduction of acid-evoked current at 3 uM at -60 mV holding potential by two-electrode voltage-clamp electrophysiology assay. In kind it is cell-based.

Assay [10] deals with T2, Acid-sensing ion channel 1 (Mus musculus). The assay is described as follows: Inhibition of mouse hippocampal neurons ASIC1b transfected in CHO cells assessed as reduction of acid-evoked current at 3 uM at -60 mV holding potential by two-electrode voltage-clamp electrophysiology assay. In kind it is cell-based.
Assay [11] concerns the target T3, Diamine oxidase [copper-containing] (Homo sapiens, UniProt P19801).
T3 sequence (P19801 whole entry): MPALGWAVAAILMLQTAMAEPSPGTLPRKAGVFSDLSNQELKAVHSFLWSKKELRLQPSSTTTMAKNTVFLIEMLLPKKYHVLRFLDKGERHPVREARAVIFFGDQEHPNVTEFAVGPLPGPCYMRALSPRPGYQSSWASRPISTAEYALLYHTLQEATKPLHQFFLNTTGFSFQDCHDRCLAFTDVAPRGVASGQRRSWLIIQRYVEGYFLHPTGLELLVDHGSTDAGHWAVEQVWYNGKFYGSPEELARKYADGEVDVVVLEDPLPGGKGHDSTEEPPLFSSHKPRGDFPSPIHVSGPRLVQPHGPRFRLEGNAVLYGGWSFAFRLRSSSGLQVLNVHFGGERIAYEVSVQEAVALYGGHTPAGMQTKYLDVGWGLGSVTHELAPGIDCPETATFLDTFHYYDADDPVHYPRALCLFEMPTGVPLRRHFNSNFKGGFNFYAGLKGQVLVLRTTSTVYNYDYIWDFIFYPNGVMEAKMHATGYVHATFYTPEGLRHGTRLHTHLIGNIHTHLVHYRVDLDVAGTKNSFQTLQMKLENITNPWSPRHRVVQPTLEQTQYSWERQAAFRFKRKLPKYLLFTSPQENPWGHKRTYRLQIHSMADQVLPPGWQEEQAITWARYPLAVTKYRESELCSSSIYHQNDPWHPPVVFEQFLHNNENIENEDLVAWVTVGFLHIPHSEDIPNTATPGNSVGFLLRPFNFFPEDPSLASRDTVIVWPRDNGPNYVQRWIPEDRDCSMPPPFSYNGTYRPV
The experiment in a line: Mixed type inhibition of recombinant human DAO expressed in drosophila S2 cells. The format is cell-based.

Assay [12] in a line: Binding affinity to r(CUG)6 (unknown origin) assessed as inhibition of RNA-MBNL1 interaction by quantitative TR-FRET assay. For orientation: Time-resolved FRET reads energy transfer from a long-lived donor to a nearby acceptor.
The target of assay [13] is Diamine acetyltransferase 1 (Homo sapiens, UniProt P21673). The experiment in a line: Inhibition of human SSAT using spermidine as substrate.
In assay [14] the target is Glutamate NMDA receptor; GRIN1/GRIN2A (Homo sapiens, UniProt Q05586+Q12879). The assay is described as follows: Antagonist activity at NR1/NR2A receptor (unknown origin) expressed in Xenopus laevis oocytes assessed as inhibition of glutamate/glycine-induced current at pH 7.6 at -40mV holding potential by two-electrode voltage-clamp electrophysiology. In kind it is cell-based.

Assay [15] can be described thus: Inhibition of mouse polyamine oxidase assessed as conversion of N-acetylspermine to […].
Assay [16] has as its target T4, Acid-sensing ion channel 3 (Mus musculus) (UniProt Q6X1Y6).
T4 sequence (whole entry): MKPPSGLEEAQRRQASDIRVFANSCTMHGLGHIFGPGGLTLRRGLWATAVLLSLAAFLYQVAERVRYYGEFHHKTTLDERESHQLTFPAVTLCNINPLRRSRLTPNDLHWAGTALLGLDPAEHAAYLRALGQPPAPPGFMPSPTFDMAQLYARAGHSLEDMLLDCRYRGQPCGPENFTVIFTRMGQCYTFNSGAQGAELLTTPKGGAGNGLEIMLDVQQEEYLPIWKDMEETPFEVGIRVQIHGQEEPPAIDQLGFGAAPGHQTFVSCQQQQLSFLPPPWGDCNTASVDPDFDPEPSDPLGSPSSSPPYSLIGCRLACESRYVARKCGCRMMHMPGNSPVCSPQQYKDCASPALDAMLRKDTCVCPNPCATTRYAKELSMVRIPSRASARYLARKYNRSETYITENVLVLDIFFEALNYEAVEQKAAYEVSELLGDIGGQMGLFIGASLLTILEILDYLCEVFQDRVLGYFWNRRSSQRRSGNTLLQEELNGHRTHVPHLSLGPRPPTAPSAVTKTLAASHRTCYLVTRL
The assay is described as follows: Inhibition of mouse hippocampal neurons ASIC3 transfected in CHO cells assessed as reduction of acid-evoked current at 3 uM at -60 mV holding potential by two-electrode voltage-clamp electrophysiology assay. In kind it is cell-based.

The IC50 is the concentration needed to halve the response being measured. In general, residual activity refers to what remains of the control signal, in per cent. As a reminder, the inhibition is the change of the read-out against control, counted positive when it falls. What is called Ki is the equilibrium dissociation constant of an inhibitor or competing ligand from its target.

Chain of Glutamate NMDA receptor; GRIN1/GRIN2A (Q12879 whole entry, other chains not shown): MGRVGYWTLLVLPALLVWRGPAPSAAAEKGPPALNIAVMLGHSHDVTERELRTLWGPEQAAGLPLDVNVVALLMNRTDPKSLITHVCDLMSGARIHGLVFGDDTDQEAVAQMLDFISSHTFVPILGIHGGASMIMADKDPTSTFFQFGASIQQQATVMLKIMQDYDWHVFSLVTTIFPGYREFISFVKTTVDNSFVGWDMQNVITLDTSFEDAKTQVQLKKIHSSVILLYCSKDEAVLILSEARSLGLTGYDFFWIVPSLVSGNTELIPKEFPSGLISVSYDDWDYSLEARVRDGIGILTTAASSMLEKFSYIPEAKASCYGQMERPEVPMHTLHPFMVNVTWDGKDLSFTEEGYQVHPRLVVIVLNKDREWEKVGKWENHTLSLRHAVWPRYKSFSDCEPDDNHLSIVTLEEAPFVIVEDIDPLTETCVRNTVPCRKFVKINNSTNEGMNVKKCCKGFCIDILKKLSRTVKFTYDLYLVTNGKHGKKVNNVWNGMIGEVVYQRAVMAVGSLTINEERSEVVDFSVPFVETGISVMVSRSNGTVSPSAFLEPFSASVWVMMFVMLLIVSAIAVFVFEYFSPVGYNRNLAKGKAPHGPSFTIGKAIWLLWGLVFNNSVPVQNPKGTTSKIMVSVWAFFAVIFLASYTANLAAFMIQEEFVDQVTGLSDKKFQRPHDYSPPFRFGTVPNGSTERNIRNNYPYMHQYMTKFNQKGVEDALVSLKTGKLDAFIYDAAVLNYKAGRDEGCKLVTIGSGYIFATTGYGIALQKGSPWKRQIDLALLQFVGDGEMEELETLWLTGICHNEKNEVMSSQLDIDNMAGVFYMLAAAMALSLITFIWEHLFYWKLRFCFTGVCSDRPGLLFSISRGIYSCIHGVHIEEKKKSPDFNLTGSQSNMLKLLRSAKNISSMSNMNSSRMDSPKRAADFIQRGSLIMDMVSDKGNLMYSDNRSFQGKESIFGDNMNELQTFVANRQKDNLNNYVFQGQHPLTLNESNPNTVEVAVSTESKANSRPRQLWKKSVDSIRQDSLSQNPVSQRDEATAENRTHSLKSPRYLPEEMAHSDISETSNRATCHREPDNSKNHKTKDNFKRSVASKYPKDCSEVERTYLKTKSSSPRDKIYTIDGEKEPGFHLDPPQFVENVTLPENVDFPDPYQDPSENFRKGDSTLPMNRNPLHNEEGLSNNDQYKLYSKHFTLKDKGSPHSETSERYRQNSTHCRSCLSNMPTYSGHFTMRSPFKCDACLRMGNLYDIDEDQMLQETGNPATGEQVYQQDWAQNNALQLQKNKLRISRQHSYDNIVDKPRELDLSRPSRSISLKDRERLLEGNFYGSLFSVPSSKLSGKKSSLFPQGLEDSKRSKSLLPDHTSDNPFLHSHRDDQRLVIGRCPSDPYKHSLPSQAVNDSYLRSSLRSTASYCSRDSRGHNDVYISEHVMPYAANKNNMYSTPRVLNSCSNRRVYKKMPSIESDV
Chain of Diamine acetyltransferase 1 (P21673 whole entry): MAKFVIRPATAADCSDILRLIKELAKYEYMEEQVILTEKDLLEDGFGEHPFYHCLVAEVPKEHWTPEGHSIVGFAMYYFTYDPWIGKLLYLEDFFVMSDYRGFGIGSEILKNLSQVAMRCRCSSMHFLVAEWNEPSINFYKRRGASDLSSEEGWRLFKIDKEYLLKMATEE

As to `N=C(N)c1ccc(NCCNc2ccc(C(=N)N)cc2)cc1`, the Activity with Mus musculus [1] amounted to 69%; in the assay with Mus musculus [2] it was 49%.
Compound `N=C(N)c1ccc(N2CCCN(c3ccc(C(=N)N)cc3)CC2)cc1` returned an IC50 in assay [3] of 1.19 µM.
Regarding `N=C(N)NC(=N)Nc1ccc(Cl)cc1C(=O)c1ccccc1`, the IC50 in assay [4] came out at 12 µM.
For `N=C(N)c1ccc(/C=C/c2ccc(C(=N)N)cc2O)cc1` [HYDROXYSTILBAMIDINE], the IC50 in [5] is 1.5 µM.
As to `N=C(N)NC(=N)Nc1cccc(Cl)c1Cl`, the IC50 in [4] was found to be 8 µM.
With `N=C(Nc1ccc(OCCCCCOc2ccc(NC(=N)c3ccccc3)cc2)cc1)c1ccccc1`, the residual activity was determined as 86.6% in the assay listed under Homo sapiens [6] and 12.1% in the assay filed under Homo sapiens [7].
Turning to `CC(C)(C)NC(=O)c1cccc(N2C(=O)c3ccc(C(=O)O)cc3C2=O)c1`, in [4], the IC50 was over 100 µM.
As to `N=C(N)c1ccc(OCCCCCOc2ccc(C(=N)N)cc2)cc1` [PENTAMIDINE], the inhibition was determined as 51% in [8], 39% in [9], 92% in assay [10] and 74% in [16]. The Ki in assay [11] turned out to be 0.29 µM; in [13], 2 µM; in assay [15], 7.6 µM. Moreover, the IC50 is over 1000 µM in assay [12], 38 µM in assay [5], 0.72 µM in assay [14] and 1.2 µM in [4]. In addition, the residual activity in the assay listed under Homo sapiens [6] turned out to be 48.2%; in the assay listed under Homo sapiens [7], 10.8%.
With `N=C(N)c1ccc(-c2cc3ccc(C(=N)N)cc3[nH]2)cc1` [DAPI], the IC50 in assay [5] stood at 2.8 µM.
`N=C(N)c1ccc(NC(=O)c2ccc(C(=O)Nc3ccc(C(=N)N)cc3)c(N)c2)cc1`: in assay [12], the IC50 turned out to be 10 µM.
For `CNC1(c2ccccc2Cl)CCCCC1=O` (stereo not drawn) [KETAMINE], the IC50 in [14] was 3.31 µM.
On to `Cc1c(NS(=O)(=O)c2ccc(NC(=O)CCC(=O)O)cc2)c(=O)n(-c2ccccc2)n1C`, for which the IC50 in assay [4] is over 100 µM.
The same measure, in the same setting: to `Cc1cc(C)c(N2C(=O)c3ccc(C(=O)Nc4cc(C(=O)O)cc(C(=O)O)c4)cc3C2=O)c(C)c1` belongs 44 µM.
Consider `N=C(N)c1ccc(/N=N/Nc2ccc(C(=N)N)cc2)cc1` [DIMINAZENE], for which the Ki in assay [11] worked out at 0.013 µM; in assay [13], 2.4 µM; in assay [15], 120 µM. For the same compound, the IC50 in [5] came to 0.3 µM.
As for `CN1CC[C@@]23CCCC[C@@H]2[C@@H]1Cc1ccc(O)cc13` [DEXTRORPHAN], the IC50 in assay [14] is 1.3 µM.
As to `N=C(N)c1ccc(OCCOc2cccc(N)c2)cc1`, the IC50 in assay [12] was 250 µM.
